Experimental data as given in article PMC10138721, “Investigation of the Compatibility between Warheads and Peptidomimetic Sequences of Protease Inhibitors—A Comprehensive Reactivity and Selectivity Study” (International Journal of Molecular Sciences, 2023).

Legend:
[1] = target: T1, human cathepsin S (CatS) (Homo sapiens, UniProt P25774); assay: Fluorometric inhibition assay, cathepsin S; format: biochemical; settings: for kinact: read-out: kinact, CatS
T1 construct: purchased Sigma Aldrich

[2] = target: rhodesain (Trypanosoma brucei rhodesiense, UniProt Q95PM0); assay: Fluorometric inhibition assay, rhodesain; format: biochemical; settings: for kinact: read-out: kinact, Rhodesain
rhodesain, sequence (Q95PM0 entry or part of it): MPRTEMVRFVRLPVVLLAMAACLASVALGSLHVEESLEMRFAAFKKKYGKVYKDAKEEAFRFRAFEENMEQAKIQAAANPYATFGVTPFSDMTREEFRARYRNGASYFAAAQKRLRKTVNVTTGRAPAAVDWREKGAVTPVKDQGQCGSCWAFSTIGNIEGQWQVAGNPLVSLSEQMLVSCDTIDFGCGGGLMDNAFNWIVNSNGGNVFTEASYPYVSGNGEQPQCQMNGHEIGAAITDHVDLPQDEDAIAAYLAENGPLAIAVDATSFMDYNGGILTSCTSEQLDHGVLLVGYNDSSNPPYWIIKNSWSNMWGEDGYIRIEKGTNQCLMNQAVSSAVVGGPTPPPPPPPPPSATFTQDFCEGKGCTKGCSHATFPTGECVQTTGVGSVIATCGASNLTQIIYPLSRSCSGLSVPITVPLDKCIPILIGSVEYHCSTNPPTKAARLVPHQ

T1 sequence (P25774 115-331): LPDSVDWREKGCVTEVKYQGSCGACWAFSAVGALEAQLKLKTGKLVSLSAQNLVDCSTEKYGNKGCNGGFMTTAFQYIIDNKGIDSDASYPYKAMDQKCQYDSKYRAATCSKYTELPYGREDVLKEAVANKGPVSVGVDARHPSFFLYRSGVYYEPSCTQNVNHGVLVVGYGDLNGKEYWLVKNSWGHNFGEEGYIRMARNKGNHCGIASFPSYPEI

Compound | Ki ([1]; Ki, CatS) | Ki ([2]; Ki, Rhodesain) | Ki ([1]; pKi, Cathepsin S inhibition) | kinact [1] | Ki ([2]; pKi, Rhodesain inhibition) | kinact [2] | activity against rhodesain, in words [2]
O=C(N[C@@H](Cc1ccccc1)C(=O)N[C@H](/C=C/[N+](=O)[O-])CCc1ccccc1)OCc1ccccc1 [compound 13] | 201 ± 93 nM | 0.06 ± 0.006 nM | – | – | – | – | –
O=C(N[C@@H](Cc1ccccc1)C(=O)N[C@H](/C=C/S(=O)(=O)c1ccccc1)CCc1ccccc1)OCc1ccccc1 [compound 16] | – | 20 ± 2 nM | 1 nM | 0.0037 ± 0.0006 s⁻¹ | 20 nM | 0.005 ± 0.0001 s⁻¹ | –
O=C(N[C@@H](Cc1ccccc1)C(=O)N[C@H](/C=C(\F)S(=O)(=O)c1ccccc1)CCc1ccccc1)OCc1ccccc1 [compound 17] | 966 ± 104 nM | 3570 ± 437 nM | 1000 nM | – | – | – | –
O=C(N[C@@H](Cc1ccccc1)C(=O)N[C@@H](CCc1ccccc1)C(=O)c1nc2ccccc2s1)OCc1ccccc1 [compound 18] | – | – | – | – | – | – | inactive at 20 µM
CCOC(=O)/C=C/C(=O)[C@H](CCc1ccccc1)NC(=O)[C@H](Cc1ccccc1)NC(=O)OCc1ccccc1 [compound 22] | 18 ± 3 nM | 79 ± 7 nM | – | 0.0022 ± 0.0001 s⁻¹ | – | 0.008 ± 0.001 s⁻¹ | –
O=C(N[C@@H](Cc1ccccc1)C(=O)N[C@@H](CCc1ccccc1)C(=O)N[C@H]1CN(c2ccccc2)C1=O)OCc1ccccc1 [compound 24] | – | – | – | – | – | – | inactive at 20 µM
N#C[C@H](CCc1ccccc1)NC(=O)[C@H](Cc1ccccc1)NC(=O)OCc1ccccc1 [compound 25] | 136 ± 12 nM | 88 ± 17.4 nM | – | – | – | – | –
N#CC(COCc1ccccc1)NC(=O)C(CC1CCCCC1)NC(=O)N1CCOCC1 (stereo not drawn) [compound 30] | – | 21 ± 2 nM | – | – | – | – | –
O=C(NC(C=CS(=O)(=O)c1ccccc1)COCc1ccccc1)C(CC1CCCCC1)NC(=O)N1CCOCC1 (stereo not drawn) [compound 35] | – | 22 ± 2 nM | 3.16 nM | 0.0202 ± 0.0006 s⁻¹ | – | 0.006 ± 0.0004 s⁻¹ | –
O=C(NC(C=C(F)S(=O)(=O)c1ccccc1)COCc1ccccc1)C(CC1CCCCC1)NC(=O)N1CCOCC1 (stereo not drawn) [compound 36] | 3210 ± 612 nM | – | – | – | – | – | –
CCOC(=O)C=CC(=O)C(COCc1ccccc1)NC(=O)C(CC1CCCCC1)NC(=O)N1CCOCC1 (stereo not drawn) [compound 40] | 22 ± 4 nM | 35 ± 9 nM | – | 0.0023 ± 7e-05 s⁻¹ | – | 0.003 ± 0.0001 s⁻¹ | –
O=C(NC(COCc1ccccc1)C(=O)c1nc2ccccc2s1)C(CC1CCCCC1)NC(=O)N1CCOCC1 (stereo not drawn) [compound 42] | 233 ± 24 nM | 324 ± 89 nM | 316 nM | – | – | – | submicromolar affinity
O=C(NC1CN(c2ccccc2)C1=O)C(COCc1ccccc1)NC(=O)C(CC1CCCCC1)NC(=O)N1CCOCC1 (stereo not drawn) [compound 45] | 860 ± 130 nM | – | – | 0.00046 ± 2e-05 s⁻¹ | – | – | –
O=C(NC(C=C[N+](=O)[O-])COCc1ccccc1)C(CC1CCCCC1)NC(=O)N1CCOCC1 (stereo not drawn) [compound 49] | 12 ± 1 nM | – | – | – | 2 nM | – | –
